Consider two compounds from article PMC5853558, “De novo identification of lipid II binding lipopeptides with antibacterial activity against vancomycin-resistant bacteria” (Chemical Science, 2017).

*1 amine or outer side, *2 acyl side, *3 side chain or, on linkers, in order; H or OH if unused. Where a SMILES comes first, the peptide text is derived from it. Bridges are numbered along the chain shown (N, C = ends). Where no end group is shown, it is not given here. [ ]: non-standard residue; d: D form. The star is where a group is joined. TBMB = c1c(C[*:1])cc(C[*:3])cc1C[*:2]; NHtetradecyl = CCCCCCCCCCCCCCN*

As a reminder, the Kd is the equilibrium constant for the complex coming apart.

Series [1] has as its system M. luteus (NCTC2665). Put plainly: microbe, parasite or virus in culture. The series is classed as cell-based, Micrococcus luteus. In short, it runs like this:
(§1)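 TSB microdilution MIC. Top final peptide 512 µg/ml, lipopeptides 64 µg/ml, DMSO 2%; cells grown to OD600 0.5, suspension at 1 x 10^6 CFU/ml added 1:1; shaken 250 rpm at strain's optimal temperature; DMSO-only control per strain.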

For series [2] the following is noted: footnote to Supplemental table S7; observation in words during MIC experiments.
Series [3] concerns E. faecium (VRE155). Put plainly: microbe, parasite or virus in culture. It is filed as cell-based, Enterococcus faecium. In short, it runs like this: as §1
Series [4] has as its system Sheep blood. Description: Hemolysis assay. It is filed as cell-based. The following applies: Supplemental table S7; sheep blood cells in PBS, 32 µg/ml, 1 h at 37°C, absorption at 414 nm. Here is the method: Sheep blood in Alsever’s solution (2 mL) was diluted with PBS (13 mL) and centrifuged (2,000 RPM, 5 min). The supernatant was discarded and the cells were washed with another 13 mL of PBS and centrifuged. Washing was continued until the supernatant was clear. After the final wash the supernatant was discarded and the packed cells were kept on ice. Serial dilutions of each peptide were made in 50 µl PBS with the highest tested concentration 64 µg/mL in PBS, 2%
DMSO. The packed cells (150 µL) were suspended in PBS (10 mL) and 50 µL of this suspension was added to each well. A well plate column containing 0.1% triton x-100 in DI water was used as the 100% lysis control and a second column with PBS (with 2% DMSO) served as the 0% lysis control. After incubation at 37°C for 1h the plates were centrifuged (2,000 RPM, 5 min) and 25 µL of the supernatant was added to 100 µL DI water in a flat-bottom 96-wells plate (polystyrene). […]

For series [5] the following is noted: read-out: Kd for undecaprenyl pyrophosphate (C55-PP); cited from earlier work.
Series [6] deals with C55-PP. Description: Antagonization assay with C55-PP. Set-up: key to Result with antagonist C55-PP: +: antagonization of antibiotic activity; -: no antagonization of antibiotic activity. The settings on record: Supplemental table S10; peptide at 4x MIC, M. luteus, 16 h at 30°C, growth observed visually. It is filed as cell-based, M. luteus. Here is the method: (§2) To assess the role of lipid II in the mode of action of the lipopeptides a lipid II antagonization assay was employed.[18],[33] This assay was performed by premixing P8-D-C10 or the optimized P8-D-(S6R, R15A)-C10 with an excess of lipid II prior to addition of a live culture of M. luteus. […] To probe the stereochemical aspects of lipid II recognition by the optimized P8-D-(S6R, R15A)-C10 lipopeptide we also prepared and tested the corresponding enantiomeric L-peptide species P8-L-(S6R, R15A)-C10. […] Given that lipid II is a chiral biomolecule we had expected the enantiomeric lipopeptides to have different activities based on the assumption that they would interact differently with lipid II. To further investigate this phenomenon we employed the same lipid II antagonization assay described above. […] To explain this observation we hypothesize that the two enantiomeric peptides interact primarily with the pyrophosphate moiety of lipid II and are therefore less influenced by the chiral elements present elsewhere in the lipid II molecule. The pyrophosphate group is known to be a binding site for many natural occurring lipid II binding peptides.[15],[16] […] To test the hypothesis that both the P8-D-(S6R, R15A)-C10 and P8-L-(S6R, R15A)-C10 lipopeptides interact with the pyrophosphate moiety we performed an additional antagonizaiton experiment using C55-PP.
(§3) Section 4 Biological and biochemical experiments
(§4) 4.1 Minimum inhibitory concentration assay
(§5) MIC values were determined by using the broth microdilution method. Peptides were dissolved first in DMSO and diluted with broth so that the final peptide concentration was 1024 µg/ml and the DMSO concentration was 4%. Peptide serial dilutions were made in TSB in a polypropylene 96-wells plate using 50 µl volumes. An overnight culture of the organism of interest was diluted to and OD600 of 0.01 and grown until they reach 0.5. The culture was then diluted to 1 x 10^6 CFU/ml and 50 µl of this suspension was added to each well. The highest concentrations were then 512 µg/ml peptide and 2% DMSO. The plates were incubated at the preferred growth temperature of the organism that was used and 250 rpm. […] When […]
(§6) determining the MICs of the lipidated peptides, the lipopeptides were first dissolved in DMSO and diluted with TSB so that the peptide concentration was 128 µg/ml and the DMSO concentration was 4%. After inoculation the highest peptide concentration evaluated was 64 µg/ml and the DMSO concentration was 2%. A DMSO control was tested for each strain to ensure the DMSO did not affect the growth of the particular strain. […]
(§7) 4.4 Antagonization assays
(§8) Stock solutions of each peptide antibiotic were prepared so that their final concentration in the assay would be 4x MIC. Peptides were transferred to a 96 wells plate and lipid II or C15-P (farnesyl-phosphate) was added at 4 molar equivalents in a final volume of 50 µl. Each well received 50 µl of bacterial suspension (M. luteus) at 1 x 10^6 CFU/ml and the plates were incubated for 16 h at 250 rpm and 30°C. Growth was observed visually (see supplemental table S10 for results).

Series [7] relates to lipid II. Description: Lipid II antagonization assay. The series is classed as cell-based, M. luteus. Set-up: key to Result with antagonist Lipid II: +: antagonization of antibiotic activity; -: no antagonization of antibiotic activity. Here is the method:
as §2, §3, §4, §5, §6, §7, §8

Series [8] has as its system S. epidermidis (1587). Description: microbe, parasite or virus in culture. It is filed as cell-based. In short, it runs like this: as §1
Series [9] relates to B. subtilis (168). Description: microbe, parasite or virus in culture. It is filed as cell-based. In short, it runs like this:
as §1

For series [10], the system named is S. pyogenes (5448). Put plainly: microbe, parasite or virus in culture. The series is classed as cell-based. The gist of the method:
as §1

Series [11] deals with E. faecium (VRE2297). Description: microbe, parasite or virus in culture. The series is classed as cell-based, Enterococcus faecium. In short, it runs like this:
as §1

Series [12] has as its system E. faecium (VRE7391). Put plainly: microbe, parasite or virus in culture. The series is classed as cell-based, Enterococcus faecium. In short, it runs like this: as §1
In series [13] the test system is E. faecium (E980). Description: microbe, parasite or virus in culture. The series is classed as cell-based, Enterococcus faecium. The gist of the method: as §1
In series [14] the test system is E. faecium (VRE0321). Description: microbe, parasite or virus in culture. It is filed as cell-based, Enterococcus faecium. The gist of the method:
as §1

In series [15] the test system is C15-P (farnesyl-phosphate). Description: Antagonization assay with C15-P (negative control). The series is classed as cell-based. The following applies: Supplemental table S10, peptide at 4x MIC, 4 molar equivalents, M. luteus, 16 h at 30°C, growth observed visually. Set-up: key: +: antagonization of antibiotic activity; -: no antagonization of antibiotic activity. Here is the method: as §3, §4, §5, §6, §7, §8
Supplemental table S10. Lipid II antagonization assay results
Result with indicated antagonista
Antibiotic compound Lipid II C55-PP C15-Pb […]
a + = antagonization of antibiotic activity; - = no antagonization of antibiotic activity; b C -P was used as a negative […]
control (C15-P is a watersoluble analogue of the lipid II precursor undecaprenol phosphate).
4.6 Scanning Electron Microscopy
E. faecium E155 was inoculated at an OD600nm of 0.05 into 300 µL of cation adjusted TSB containing P8-D-(S6R, R15A)-C10 or nisin at (both a 2x MIC) along with 1% glucose and 1%
DMSO. An untreated culture was used as control. Following overnight incubation (ca. 16 hr) bacterial cells were fixed for 15 minutes with 1% (v/v) glutaraldehyde in phosphate buffered saline (PBS) at room temperature on poly-L-lysine covered glass slides (12 mm diameter). […]

[16] abbreviates: Supplemental table S7, P8 with varying lipids, broth microdilution.
The mark [17] stands for this setting: Supplemental table S9, MIC values of Table 2 expressed in µM.
The mark [18] stands for this setting: Table 2, broth microdilution in TSB, 16 h, read visually, highest tested 64 µg/ml.
The mark [19] stands for this setting: Supplemental table S9, vancomycin-resistant isolate, MIC values of Table 2 expressed in µM.
[20] abbreviates: Table 2, vancomycin-resistant isolate from hospitalized patients, broth microdilution in TSB, 16 h, highest tested 64 µg/ml.

With `CCCCCCCCCCCCCCNC(=O)CNC(=O)[C@H]1CSCc2cc3cc(c2)CSC[C@@H](NC(=O)[C@@H](CC(C)C)NC(=O)[C@@H](CC(C)C)NC(=O)[C@@H](CO)NC(=O)[C@@H](CCC(N)=O)NC(=O)[C@@H](CC(C)C)NC(=O)[C@@H](CC(C)C)NC(=O)[C@H](NC(=O)[C@@H](C)N)CSC3)C(=O)N2CCC[C@@H]2C(=O)N[C@H](Cc2ccc(O)cc2)C(=O)N[C@H](CO)C(=O)N[C@H]([C@H](C)O)C(=O)N[C@H](Cc2c[nH]cn2)C(=O)N[C@H](CCCNC(=N)N)C(=O)N1` [Peptide P8-D-C14] (H-[dA][dC][dL][dL][dQ][dS][dL][dL][dC][dP][dY][dS][dT][dH][dR][dC]G-NHtetradecyl; linker 2-9-16 via TBMB; N-terminus assumed), the “MIC M. luteus” value in series [1] (setting [16]) fell in the range of 4 to 64 µg/mL. Further, the “solubility of the peptide” value in series [2] is “poor”. Moreover, the “MIC VRE E155” value in [3] (setting [16]) lay within 4 to 64 µg/mL. Moreover, the “Hemolysis 32 µg/ml (after 1 h)” value in [4] is recorded as 12%.

As for “Nisin (ITSISLCTPGCKTGALMGCNMKTATCHCSIHVSK; not fully specified (some residues, bridges); also: lantibiotic nisin-A: lanthionine rings and dehydro residues not placed; UniProt P13068 24-57, looked up) [reference compound]”, the Kd in series [5] is 133 nM. Besides, in series [6], the “Result with antagonist C55-PP” value was “+”. Besides, the “MIC M. luteus (NCTC2665)” value in [1] (setting [17]) was under 0.3 µM; in series [1] (Table 2, broth microdilution in TSB, 16 h, read visually, highest tested 64 µg/ml, 2% DMSO), under 1 μg mL^–1. Further, in series [7] (Supplemental table S10, peptide at 4x MIC, antagonist at 4 molar equivalents, M. luteus 1 x 10^6 CFU/ml, 16 h at 30°C, growth observed visually), the “Result with antagonist Lipid II” value is listed as “+”. Also, the “Effect of pre-incubation with lipid II on antibacterial activity” value in series [7] (premixed with an excess of lipid II before addition of a live culture of M. luteus) is on record as “antagonization of antibacterial activity”. Further, the “MIC S. epidermidis (1587)” value turned out to be 1.2 µM in series [8] (setting [17]) and 4 μg mL^–1 in series [8] (setting [18]). Moreover, the “MIC B. subtilis (168)” value in [9] (setting [17]) is listed as 1.2 µM; in series [9] (setting [18]), 4 μg mL^–1. Further, the results for the “MIC S. pyogenes (5448)” value in [10] (setting [17]) and in series [10] (setting [18]) were under 0.3 µM and under 1 μg mL^–1, respectively. Moreover, the “MIC E. faecium (VRE155)” value in series [3] (Supplemental table S6, lipidated phage display hits, n.a. = not active, highest tested conc 64 µg/ml) is under 1 µg/mL; in series [3] (setting [19]), under 0.3 µM; in [3] (setting [20]), under 1 μg mL^–1. The results for the “MIC E. faecium (VRE2297)” value in series [11] (setting [19]) and in series [11] (setting [20]) were 2.4 µM and 8 μg mL^–1, respectively. The “MIC E. faecium (VRE7391)” value in [12] (setting [19]) was determined as 0.6 µM; in series [12] (setting [20]), 2 μg mL^–1. Further, the figures for the “MIC E. faecium (E980)” value in [13] (setting [17]) and in series [13] (setting [18]) were 9.5 µM and 32 μg mL^–1, respectively. In addition, the “MIC E. faecium (VRE0321)” value in [14] (setting [19]) is 0.3 µM; in series [14] (setting [20]), 1 μg mL^–1. For the same compound, the “Result with antagonist C15-P” value in series [15] is listed as “-”.
